Measurements: patent US5486528A, “Basic ethers and process for the preparation thereof” (Egis Gyogyszergyar Rt., priority 1993, dated 1996)
pIC50: −log10 of the molar value. Like-named read-outs stand apart in the source and are kept apart here.

Columns and labels:
Male Wistar rats [1] = assay: Vogel test (drinking conflict test), anxiolytic effect; type: in vivo, rat (Wistar); conditions: ip, 0.5 h; rat, intraperitoneally, half an hour before testing; read-out: MED (minimum effective dose), Vogel test
Experimental: 1.1. Vogel test (drinking conflict test)
The anxiolytic effect was tested by using the method of Vogel et al. Male Wistar rats of 160 to 180 g body weight were kept free of food and drinking water for 24 and 48 hours, respectively. Test and carrier substances were administered intraperitoneally half an hour before testing. Animals within the experimental chamber were provided with drinking water through an inserted tube. After the animals' each twenty lapping for water the device emitted a 2 mA intensity electric shock through the drinking tube. During 5 minutes the shocks tolerated by the animals in order to quench their thirst were counted. The effect of treatment was expressed as the % increase of the tolerated shocks. The minimum effective dose (MED) was determined for each test compound [Volge, J. R., Beer, B., Clody, D. E.: Psychopharmacologia (Berl.) 21, 1 (1971)].

Male Wistar rats [2] = assay: Conditioned avoidance response inhibition, antipsychotic effect; type: in vivo, rat (Wistar); conditions: rat; for Inhibition of the conditioned reflex (%): 30 mg/kg p.o., ++ = p < 0.05
Experimental: Conditioned avoidance response inhibition
The antipsychotic (neuroleptic) effect was measured by the inhibition of the learned conditioned avoidance reflex. The male Wistar rats, used for the study, were of 120-150 g body weight at the commencement of learning. A shuttle box was used as experimental device; it consists of two parts, 24×24.5×23 cm each, separated by a wall with a 6×9 cm gate. In response to a sutiable warning stimulus, in order to avoid the punishing (unconditioned) stimulus, animals within the box passed through the gate from one part to the other. The warning, i.e. conditioned stimulus (CS), a white light (1 Hz) blinking for 15 seconds, was applied at the place of the actual animal existence. The unconditioned stimulus (US), in form of 0.6 mA intensity electric shock, was randomly applied to the paw during the last 5 seconds of the conditioned stimulus. The animal's movement during the CS and US from one part of the box to the other, was defined as avoidance and escape responses, respectively. Both responses ceased the actual stimulus and stopped the trial. The time elapsed until the next trial (intertrial interval, ITI) was 15 seconds. While one experiment was carried out daily, an experiment consisted of 80 trials. Learning efficiency was expressed as percentage of the successful to the total avoidances. Effect of the neuroleptic drugs was examined in animals with stabilized conditioned reflexes and with at least 75% learning efficiency. Dosing was carried out once a week, one hour before the measurement in the shuttle box. To calculate the neuroleptic effect (50% inhibiting dose, ID50) , results obtained after the treatment were compared to those obtained on the previous day (controls).

mice = assay: Effect on the spontaneous motor activity (Borsy), sedative effect; type: in vivo, mouse; conditions: for ED50: Mus musculus, po, 0.5 h, read-out: ID50, spontaneous motor activity
Experimental: 2.1. Effect on the spontaneous motor activity
The test was carried out according to the method of Borsy et al. Groups consisting of 3 mice each were treated orally with different doses of the compounds to be tested. Then the test animals were placed into a 10-channel Dews system equipment. In this equipment the number of interruptions of infrared beam within 30 minutes was counted. […] Int. Pharmacodyn. 124, 1 (1960)].

[3] = Acute toxicity on mice (Litchfield and Wilcoxon); conditions: mouse, in vivo, po
Experimental: The test was carried out according to the method of Litchfield and Wilcoxon [Litchfield, J. T. and Wilcoxon, F. W.: J. Pharmacol. Exp. Ther., 96, 99 (1949)] by using white mice belonging to the CFLP strain and weighing 10 to 22 g, 10 animals per dose. The test compounds were administered orally in a volume of 20 cm^3 /kg.

[4] = Acute toxicity on mice (Litchfield and Wilcoxon); conditions: mouse, in vivo, ip
H^+ /K^+ -ATP-ase = molecular target: T1, H^+ /K^+ -ATP-ase (Sus scrofa, UniProt P19156); assay: H+/K+-ATP-ase inhibition on partially purified pig's microsome specimen; type: biochemical
T1 construct: on partially purified pig's microsome specimen; from tissue; host or cells: pig stomach, partially purified microsomes
T1 sequence (P19156 2-1034 limits assumed): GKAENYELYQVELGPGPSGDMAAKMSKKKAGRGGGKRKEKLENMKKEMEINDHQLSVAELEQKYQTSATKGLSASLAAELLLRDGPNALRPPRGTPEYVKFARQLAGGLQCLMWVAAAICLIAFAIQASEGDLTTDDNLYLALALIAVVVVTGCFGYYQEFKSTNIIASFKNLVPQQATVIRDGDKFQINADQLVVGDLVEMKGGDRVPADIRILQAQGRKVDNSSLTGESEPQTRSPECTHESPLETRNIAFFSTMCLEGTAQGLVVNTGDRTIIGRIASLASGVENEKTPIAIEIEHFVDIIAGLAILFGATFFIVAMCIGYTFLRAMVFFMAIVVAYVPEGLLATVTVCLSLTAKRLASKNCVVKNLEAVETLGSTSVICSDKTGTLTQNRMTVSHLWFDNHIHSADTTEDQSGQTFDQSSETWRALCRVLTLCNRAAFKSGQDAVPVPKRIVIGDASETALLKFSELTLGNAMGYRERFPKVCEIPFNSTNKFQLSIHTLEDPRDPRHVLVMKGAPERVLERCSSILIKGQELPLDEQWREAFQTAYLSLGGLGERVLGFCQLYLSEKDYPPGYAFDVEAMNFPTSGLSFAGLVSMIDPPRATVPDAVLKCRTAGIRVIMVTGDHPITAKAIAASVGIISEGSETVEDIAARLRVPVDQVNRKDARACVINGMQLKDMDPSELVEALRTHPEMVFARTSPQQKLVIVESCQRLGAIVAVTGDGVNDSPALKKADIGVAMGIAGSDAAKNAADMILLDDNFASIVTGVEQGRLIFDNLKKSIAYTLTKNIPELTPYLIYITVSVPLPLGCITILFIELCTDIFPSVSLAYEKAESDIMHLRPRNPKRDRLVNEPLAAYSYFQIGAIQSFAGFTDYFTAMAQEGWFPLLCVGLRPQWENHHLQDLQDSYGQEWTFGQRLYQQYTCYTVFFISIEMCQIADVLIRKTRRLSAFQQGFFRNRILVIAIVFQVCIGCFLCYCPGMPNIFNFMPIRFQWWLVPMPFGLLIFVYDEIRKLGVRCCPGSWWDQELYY
T1 sequence (P18434 whole entry partner): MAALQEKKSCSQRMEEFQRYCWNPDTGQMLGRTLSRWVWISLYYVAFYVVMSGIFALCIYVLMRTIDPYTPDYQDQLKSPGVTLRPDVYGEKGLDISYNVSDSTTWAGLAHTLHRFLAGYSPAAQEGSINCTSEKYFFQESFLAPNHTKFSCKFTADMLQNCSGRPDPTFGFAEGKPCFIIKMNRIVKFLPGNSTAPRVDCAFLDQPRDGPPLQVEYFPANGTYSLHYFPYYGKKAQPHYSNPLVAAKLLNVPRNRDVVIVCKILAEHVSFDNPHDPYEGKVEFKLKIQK
Experimental: 1. H^+ /K^+ -ATP-ase inhibition on pig's stomach
The test was carried out according to the method of Rabon and Sachs [E. C. Rabon et al.: Preparation of gastric H^+ K^+ -ATP-ase, Methods in Enzymology, 157, 649-651 (1988)]. The activity of the prepared enzyme was measured both in the presence as in the absence of K^+ ions. The difference in the libaration of phosphorus representing the activity of the enzyme was measured.

gastric-acid secretion = assay: Gastric-acid-secretion test (Shay); type: in vivo, rat; conditions: po, read-out: Acid-secretion inhibition, ED50
Experimental: 2. […] The liberated gastric-acid content was determined by titration 4 hours after the ligature of the duodenum.

[5] = system: erosion of the stomach wall; assay: Cytoprotective effect, ethanol erosion (Robert); type: in vivo; conditions: rat; for ED50: po; for Ratio of acid-secretion inhibition and erosion inhibition: ratio of ED50 values
Experimental: 3. The cytoprotective effect was determined according to the method of Robert [Robert, A.: Cytoprotection by prostaglandins. […] Rats weighing 200 to 250 g were used as test animals. 1 cm^3 of abs. ethanol was introduced to the stomach to produce an erosion of the stomach wall. The length and frequency of the lesions (erosion index and frequency) were measured and the percentage inhibition of lesion formation compared with vehicle-treated animals was calculated.

[6] = rat, p.o., 4 hours after ligature

| Molecule | minimal effective dose (Male Wistar rats [1]) | Inhibition of the conditioned reflex (%) (Male Wistar rats [2]) | ED50 (mice; mice, orally, 30 minutes) | pIC50 (H^+ /K^+ -ATP-ase) | LD50 at 336 h [3] | ED50 (gastric-acid secretion; [6]) | LD50 at 336 h [4] | ED50 ([5]; 1 cm^3 abs. ethanol) | Ratio of acid-secretion inhibition and erosion inhibition ([5]; p.o.) | also measured |
| --- | --- | --- | --- | --- | --- | --- | --- | --- | --- | --- |
| CCC(/C=C/c1ccccc1)=N\OCC(C)CN(C)C (racemic) [Example 18, (R,S)-1-Phenyl-3-(E)-[3-(dimethylamino)-2-methylpropoxyimino]-1-(E)-pentene] | 1 mg/kg | 12% | – | – | – | – | – | – | – | inhibition of spontaneous motor activity at 100 mg/kg (mice; mice, orally, 100 mg/kg): 54% |
| CCC(/C=C/c1ccc(Cl)cc1)=N\OCC(C)CN(C)C (racemic) [Example 19, (R,S)-1-(4-Chlorophenyl)-3-(E)-[3-(dimethylamino)-2-methylpropoxyimino]-1-(E)-pentene] | 10 mg/kg | 19% | > 100 mg/kg | – | – | – | – | – | – | – |
| CC(C)CCC(/C=C/c1ccc(Cl)cc1)=N\OCC(O)CNC1CCCCC1 (racemic) [Example 36, (R,S)-1-(4-Chlorophenyl)-6-methyl-3-(E)-[3-(cyclohexylamino)-2-hydroxypropoxyimino]-1-(E)-heptene] | – | – | – | – | – | – | – | – | – | LD50 at 336 h ([3]; mice, 14 days observation): > 1000 mg/kg; LD50 at 336 h ([4]; mice, 14 days observation): 30 to 100 mg/kg |
| CC(C)CCC(/C=C/c1ccc(Cl)cc1)=N\OCC(O)CN1CCCCC1 (racemic) [Example 37, (R,S)-1-(4-Chlorophenyl)-6-methyl-3-(E)-[2-hydroxy-3-(1-piperidinyl)-propoxyimino]-1-(E)-heptene] | – | – | – | 4.68 | > 1000 mg/kg | 30 to 100 mg/kg | 100 to 300 mg/kg | 3 to 10 mg/kg | > 10 | – |
| CNC1=Nc2ccc(Cl)cc2C(c2ccccc2)=[N+]([O-])C1 [Chlorodiazepoxide, reference compound] | – | – | 56 mg/kg | – | – | – | – | – | – | – |
| CN/C(=N/CCSCc1nc[nH]c1C)NC#N [Cimetidine, reference compound] | – | – | – | – | – | – | – | 100 to 200 mg/kg | 0.3-0.6 | ED50 (gastric-acid secretion; Rattus norvegicus, 4 h): 59.1 mg/kg |
| CN1C(=O)CN=C(c2ccccc2)c2cc(Cl)ccc21 [Diazepam, reference compound] | – | – | – | – | – | – | – | – | – | ED50 (mice): 23 mg/kg |
| CCCC(/C=C/c1ccccc1)=N\OCCN(CC)CC [Example 1, 1-Phenyl-3-(E)-[2-(diethylamino)-ethoxyimino]-1-(E)-hexene] | 30 mg/kg | 10% | > 100 mg/kg | – | – | – | – | – | – | – |
| CCCCCCC(/C=C/c1ccc(Cl)cc1)=N\OCCN1CCCCC1 [Example 3, 1-(4-Chlorophenyl)-3-(E)-[2-(N-piperidinyl)-ethoxyimino]-1-(E)-nonene] | – | – | – | 5.00 | 500 to 1000 mg/kg | 50 to 150 mg/kg | 100 to 300 mg/kg | 2.5 mg/kg | > 20 | – |
| CC(C)CCC(/C=C/c1ccccc1)=N\OCCCN(C)C [Example 5, 1-Phenyl-6-methyl-3-(E)-[3-(dimethylamino)-propoxyimino]-1-(E)-heptene] | > 30 mg/kg | 16% | > 100 mg/kg | – | – | – | – | – | – | – |
| CCC(/C=C/c1ccc(Cl)cc1)=N\OCCN(C)C [Example 7, 1-(4-Chlorophenyl)-3-(E)-[2-(dimethylamino)-ethoxyimino]-1-(E)-pentene] | 3 mg/kg | 22% | > 100 mg/kg | – | – | – | – | – | – | – |
| CC(C)CCC(/C=C/c1ccc(Cl)cc1)=N\OCCCN(C)C [Example 13, 1-(4-Chlorophenyl)-6-methyl-3-(E)-[3-(dimethylamino)-propoxyimino]-1-(E)-heptene] | > 30 mg/kg | 12% | > 100 mg/kg | – | – | – | – | – | – | – |
| CCC(/C=C/c1ccccc1)=N\OCCN(C)C [Example 14, 1-Phenyl-3-(E)-[2-(dimethylamino)-ethoxyimino]-1-(E)-pentene] | 10 mg/kg | 18% | > 100 mg/kg | – | – | – | – | – | – | – |
| CC(C)CCC(/C=C/c1ccc(Cl)cc1)=N\OCCN(C)C [Example 15] | 3 mg/kg | 11% | > 100 mg/kg | – | – | – | – | – | – | – |
| CC(C)CC(/C=C/c1ccccc1)=N\OCCN(C)C [Example 17, 1-Phenyl-5-methyl-3-(E)-[2-(dimethylamino)-ethoxyimino]-1-(E)-hexene] | 30 mg/kg | 40% | > 100 mg/kg | < 4.52 | > 1000 mg/kg | 166 mg/kg | 100 to 300 mg/kg | 2.7 mg/kg | 61.4 | antipsychotic / conditioned-reflex-inhibiting activity (in words) (Male Wistar rats [2]; in vivo): slight conditioned-reflex-inhibiting activity |
| CC(C)CCC(/C=C/c1ccc(Cl)cc1)=N\OCCCN1CCCCCC1 [Example 35, 1-(Chlorophenyl)-6-methyl-3-(E)-[3-(hexahydro-1-H-azepinyl)-propoxyimino]-1-(E)-heptene] | – | – | – | – | > 1000 mg/kg | – | 30 to 100 mg/kg | – | – | – |
| CC(C)CCC(/C=C/c1ccc(F)cc1)=N\OCCCN1CCCCC1 [Example 38, 1-(4-Fluorophenyl)-6-methyl-3-(E)-[3-(N-piperidinyl)-propoximino]-1-(E)-heptene] | – | – | – | 4.77 | 500 to 1000 mg/kg | 37.7 mg/kg | 100 to 300 mg/kg | 1.3 mg/kg | 29.0 | – |
| CC(C)CCC(/C=C/c1ccc(Cl)cc1)=N/OCCC1CCCN1C (centres unmarked) [Example 40, 1-(4-Chlorophenyl)-6-methyl-3-(Z)-[2-(2-N-methylpyrrolidinyl)-ethoxyimino]-1-(E)-heptene] | – | – | – | 5.00 | 1000 mg/kg | < 100 mg/kg | 100 to 300 mg/kg | 0.9 mg/kg | < 100 | – |
| CC(C)CCC(/C=C/c1ccc(Cl)cc1)=N\OCCCN1CCCC1 [Example 41, 1-(4-Chlorophenyl)-6-methyl-3-(E)-[3-(N-pyrrolidinyl)-propoxyimino]-1-(E)-heptene] | – | – | – | 5.05 | > 1000 mg/kg | < 100 mg/kg | 30 to 100 mg/kg | 2 mg/kg | < 50 | – |
| CC(C)CCC(/C=C/c1ccc(Br)cc1)=N\OCCCN1CCCCC1 [Example 42, 1-(4-Bromophenyl)-6-methyl-3-(E)-[(3-N-piperidinyl)-propoxyimino]-1-(E)-heptene] | – | – | – | 5.15 | > 1000 mg/kg | – | 100 to 300 mg/kg | – | – | – |
| COc1ccc2[nH]c([S+]([O-])Cc3ncc(C)c(OC)c3C)nc2c1 (centres unmarked) [Omeprazole, reference compound] | – | – | – | – | – | 3.9 mg/kg | – | 4.5 mg/kg | 0.9 | – |
| CN1CCN(CC(=O)N2c3ccccc3C(=O)Nc3cccnc32)CC1 [Pirenzepine, reference compound] | – | – | – | – | – | 7.9 mg/kg | – | 18.6 mg/kg | 0.4 | – |
| Sucralfate [reference compound] | – | – | – | – | – | – | – | – | – | Ethanol erosion ED50 ([5]; p.o., 1 cm^3 abs. ethanol): 69.0 |
